One data set is described as follows: in vivo. Conditions: male, Sprague-Dawley, rat, oral.
Data set [1] concerns conditioned avoidance responding in male Wistar rats. Briefly: Conditioned avoidance response (CAR). It counts as in vivo, rat. As for the experimental part:
The drug was administered, per os (po), by gavage to rats in a volume of 2 ml/kg body weight. Oral dosing solutions were prepared fresh daily. […] The pH of the dosing solution was adjusted to ~pH 5.5 by dropwise addition of 0.1 N NaOH in saline and volume adjusted by addition of saline in preparation for intraperitoneal (ip) dosing. […] Control treatments were always the vehicle solutions of the corresponding drugs.
Avoidance behavior, escape behavior, escape failures, and inter-trial crosses were recorded, as described here: (1) avoidance (response to CS within 10 s); (2) escape (response to CS + UCS); and (3) escape failure (if the rat was unable to respond to the shock by moving into the opposite compartment within 50 s, the trial was terminated). The inter-trial interval (end of trial to start of new trial) varied randomly between 20 and 40 s. Rats were trained for five consecutive days and adapted to the shuttle box 5 min before each training session. Training sessions consisted of about 20 trials, randomly distributed over 15 min. Only rats that performed at least 90 % avoidance on the last day of training were included in the experiments. All subsequent test sessions were preceded by a pre-test to verify continued performance in the paradigm. Pre-tests and test sessions consisted of approximately ten trials, each randomly distributed over a 7.5-min period. […] Experimental days were always separated by at least two non-experimental days. Experimental tests were separated by at least 2 days to insure drug washout.
Results from the conditioned avoidance responding (CAR) protocol were analyzed using non-parametric procedures.

Molecules are shown by their SMILES.

Experimental for in vivo: Standard methods of tissue extraction were used. […] Brain homogenate or plasma was then extracted with two volumes of acetonitrile and clarified by centrifugation at 12,000g for 20 min. […] Brain and plasma concentration and ratio (brain/plasma) were calculated for each compound.

For `Cc1nc2n(c(=O)c1CCN1CCC(c3noc4cc(F)ccc34)CC1)CCCC2O` (centres unmarked) [Paliperidone, paliperidone], the concentration at 1 h is 15 ± 5 ng/mL in “in vivo” (brain); 197 ± 91 ng/mL in the data set “in vivo” (plasma); 162 ± 70 ng/mL in the data set “in vivo” (plasma, plasma concentration, risperidone 2 mg/kg po plus vehicle, 1 h, ± SD, n = 3).

Consider `Cc1nc2n(c(=O)c1CCN1CCC(c3noc4cc(F)ccc34)CC1)CCCC2` [Risperidone, reference compound], for which, in data set [1] (0.2 mg/kg i.p., sub-threshold dose), the “effect on percent avoidances” value was “no effect”. In data set [1] (0.8 mg/kg i.p., effective dose), the “effect on avoidance behaviors” value is listed as “significant inhibition”.

The values above are taken from publication PMC4980415 (Psychopharmacology, 2016).
